Here are results for 34 compounds from ChEMBL document CHEMBL2424545, “Structure-efficiency relationship of [1,2,4]triazol-3-ylamines as novel nicotinamide isosteres that inhibit tankyrases” (J Med Chem, 2013).

Molecules are shown by their SMILES. pIC50: −log10 of the molar value. Converted amounts (≈) assume the structure as drawn. Where only a bound is given, the exact number is not on record here.

The target of data set [1] is T1, Poly [ADP-ribose] polymerase tankyrase-2 (Homo sapiens, UniProt Q9H2K2).
T1 sequence (Q9H2K2 whole entry): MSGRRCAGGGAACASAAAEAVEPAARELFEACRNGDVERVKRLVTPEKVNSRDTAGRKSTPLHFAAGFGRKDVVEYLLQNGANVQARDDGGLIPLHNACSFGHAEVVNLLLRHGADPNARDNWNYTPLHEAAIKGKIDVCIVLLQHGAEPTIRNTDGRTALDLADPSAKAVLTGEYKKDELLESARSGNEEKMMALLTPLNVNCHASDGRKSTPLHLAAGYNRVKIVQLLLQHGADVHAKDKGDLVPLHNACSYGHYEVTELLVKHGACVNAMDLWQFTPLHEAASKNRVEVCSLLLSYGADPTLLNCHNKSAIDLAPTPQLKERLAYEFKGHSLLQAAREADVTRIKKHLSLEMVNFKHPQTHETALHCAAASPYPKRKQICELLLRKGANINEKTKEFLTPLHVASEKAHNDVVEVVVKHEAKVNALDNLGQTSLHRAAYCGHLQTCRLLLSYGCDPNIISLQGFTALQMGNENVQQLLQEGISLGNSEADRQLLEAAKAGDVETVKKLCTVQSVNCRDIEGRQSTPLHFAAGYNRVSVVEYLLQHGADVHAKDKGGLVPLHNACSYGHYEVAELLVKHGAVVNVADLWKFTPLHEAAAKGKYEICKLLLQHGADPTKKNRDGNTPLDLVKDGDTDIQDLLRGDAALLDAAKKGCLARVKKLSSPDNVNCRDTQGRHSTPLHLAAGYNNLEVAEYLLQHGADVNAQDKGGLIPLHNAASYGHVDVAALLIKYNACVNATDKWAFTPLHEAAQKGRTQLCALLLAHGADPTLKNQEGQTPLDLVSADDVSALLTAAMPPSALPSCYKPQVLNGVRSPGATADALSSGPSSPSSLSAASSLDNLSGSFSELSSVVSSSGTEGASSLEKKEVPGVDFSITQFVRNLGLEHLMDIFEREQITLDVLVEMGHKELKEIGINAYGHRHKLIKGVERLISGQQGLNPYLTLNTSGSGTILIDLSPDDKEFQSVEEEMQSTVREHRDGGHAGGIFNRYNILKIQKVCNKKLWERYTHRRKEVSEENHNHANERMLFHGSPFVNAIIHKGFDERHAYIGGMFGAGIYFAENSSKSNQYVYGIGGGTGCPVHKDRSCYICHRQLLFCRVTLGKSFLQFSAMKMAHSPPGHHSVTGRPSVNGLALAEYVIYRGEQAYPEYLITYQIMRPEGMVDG
Description: Inhibition of N-terminal GST-tagged TNKS2 (unknown origin) expressed in baculovirus infected sf21 cells after 60 mins by LC-MS analysis.

The nature of data set [2]: Inhibition of Wnt signaling in human HEK293 cells by STF luciferase reporter gene assay.
The nature of data set [3]: Hepatic extraction ratio in human liver microsomes. The class given is ADME, Microsome. The settings on record: read-out: ERH. A general note: Liver microsomes are vesicles of endoplasmic reticulum, rich in cytochrome P450 enzymes.
A short description of data set [4]: Hepatic extraction ratio in mouse liver microsomes. The class given is ADME, Microsome. To be noted: read-out: ERH.
Data set [5] can be described thus: Inhibition of TNKS in human SW480 cells assessed as stabilization of axin2 after 24 hrs by ELISA. The class given is cell-based. In general terms: An ELISA detects its analyte on a solid surface through an enzyme-linked reagent.
A short description of data set [6]: Solubility of the compound at pH 6.8. The settings on record: buffer. It counts as physicochemical.
The target in data set [7] is T2, Poly [ADP-ribose] polymerase tankyrase-1 (Homo sapiens, UniProt O95271).
T2 sequence (O95271 whole entry): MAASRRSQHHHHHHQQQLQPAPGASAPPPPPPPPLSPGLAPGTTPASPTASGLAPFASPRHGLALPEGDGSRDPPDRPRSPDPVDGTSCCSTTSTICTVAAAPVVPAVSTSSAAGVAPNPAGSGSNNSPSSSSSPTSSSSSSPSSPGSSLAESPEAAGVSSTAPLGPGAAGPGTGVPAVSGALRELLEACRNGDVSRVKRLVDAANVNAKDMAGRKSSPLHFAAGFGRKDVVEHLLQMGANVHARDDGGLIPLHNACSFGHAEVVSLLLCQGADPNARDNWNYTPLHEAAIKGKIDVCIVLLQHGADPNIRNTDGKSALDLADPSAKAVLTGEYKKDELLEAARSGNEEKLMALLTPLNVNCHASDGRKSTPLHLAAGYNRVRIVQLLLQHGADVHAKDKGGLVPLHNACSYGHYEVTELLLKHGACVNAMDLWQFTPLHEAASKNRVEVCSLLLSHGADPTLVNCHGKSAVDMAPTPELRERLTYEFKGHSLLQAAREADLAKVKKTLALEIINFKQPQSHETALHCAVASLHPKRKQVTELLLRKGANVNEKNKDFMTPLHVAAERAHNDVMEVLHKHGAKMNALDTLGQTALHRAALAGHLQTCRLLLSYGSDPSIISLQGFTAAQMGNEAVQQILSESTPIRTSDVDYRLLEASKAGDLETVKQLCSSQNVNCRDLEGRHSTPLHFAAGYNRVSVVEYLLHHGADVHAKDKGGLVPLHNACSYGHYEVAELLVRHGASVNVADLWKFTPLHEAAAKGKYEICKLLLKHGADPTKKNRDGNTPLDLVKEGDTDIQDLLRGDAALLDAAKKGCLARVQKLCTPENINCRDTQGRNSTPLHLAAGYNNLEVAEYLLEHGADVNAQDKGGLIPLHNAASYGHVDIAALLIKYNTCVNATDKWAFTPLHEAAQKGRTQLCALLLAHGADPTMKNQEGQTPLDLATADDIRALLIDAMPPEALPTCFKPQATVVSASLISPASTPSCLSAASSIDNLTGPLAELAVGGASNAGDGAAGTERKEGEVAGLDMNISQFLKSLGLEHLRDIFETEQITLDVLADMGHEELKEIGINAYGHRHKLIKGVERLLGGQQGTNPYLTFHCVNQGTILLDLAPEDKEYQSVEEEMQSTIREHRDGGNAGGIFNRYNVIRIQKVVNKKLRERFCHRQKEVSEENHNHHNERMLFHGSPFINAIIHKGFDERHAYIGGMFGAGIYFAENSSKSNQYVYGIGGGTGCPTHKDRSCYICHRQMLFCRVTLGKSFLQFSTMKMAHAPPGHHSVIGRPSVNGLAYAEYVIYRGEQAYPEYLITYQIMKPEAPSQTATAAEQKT
Description: Inhibition of N-terminal GST-tagged human TNKS1 expressed in baculovirus infected sf21 cells after 60 mins by LC-MS analysis.

Data set [8] deals with Poly [ADP-ribose] polymerase 1 (Homo sapiens, UniProt P09874).
Description: Inhibition of human PARP1 after 60 mins by LC-MS analysis
In data set [9] the target is Poly [ADP-ribose] polymerase 2 (Homo sapiens, UniProt Q9UGN5). Kind of data set: Inhibition of PARP2 (unknown origin) after 60 mins by LC-MS analysis.
A short description of data set [10]: Volume of distribution in iv dosed Sprague-Dawley rat. It counts as ADME, organism-based. The settings on record: in vivo.
Data set [11] is described as follows: Plasma clearance in iv dosed Sprague-Dawley rat. The class given is ADME, organism-based.

Sequence of Poly [ADP-ribose] polymerase 2 (Q9UGN5 whole entry): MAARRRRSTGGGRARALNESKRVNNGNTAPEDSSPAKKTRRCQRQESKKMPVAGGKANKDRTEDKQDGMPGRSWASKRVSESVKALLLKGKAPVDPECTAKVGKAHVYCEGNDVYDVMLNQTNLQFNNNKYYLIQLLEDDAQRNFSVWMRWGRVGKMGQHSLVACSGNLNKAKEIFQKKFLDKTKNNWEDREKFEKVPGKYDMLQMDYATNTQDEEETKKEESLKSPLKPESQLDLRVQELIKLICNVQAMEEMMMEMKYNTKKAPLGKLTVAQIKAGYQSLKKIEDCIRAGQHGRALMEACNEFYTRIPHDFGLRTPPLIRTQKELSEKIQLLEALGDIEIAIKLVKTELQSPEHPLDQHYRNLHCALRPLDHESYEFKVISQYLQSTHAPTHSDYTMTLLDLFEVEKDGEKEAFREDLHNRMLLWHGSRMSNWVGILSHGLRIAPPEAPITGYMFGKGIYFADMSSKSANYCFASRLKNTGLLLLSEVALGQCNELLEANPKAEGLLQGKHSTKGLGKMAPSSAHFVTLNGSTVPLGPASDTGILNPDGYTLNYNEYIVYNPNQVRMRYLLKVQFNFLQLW
Sequence of Poly [ADP-ribose] polymerase 1 (P09874 whole entry): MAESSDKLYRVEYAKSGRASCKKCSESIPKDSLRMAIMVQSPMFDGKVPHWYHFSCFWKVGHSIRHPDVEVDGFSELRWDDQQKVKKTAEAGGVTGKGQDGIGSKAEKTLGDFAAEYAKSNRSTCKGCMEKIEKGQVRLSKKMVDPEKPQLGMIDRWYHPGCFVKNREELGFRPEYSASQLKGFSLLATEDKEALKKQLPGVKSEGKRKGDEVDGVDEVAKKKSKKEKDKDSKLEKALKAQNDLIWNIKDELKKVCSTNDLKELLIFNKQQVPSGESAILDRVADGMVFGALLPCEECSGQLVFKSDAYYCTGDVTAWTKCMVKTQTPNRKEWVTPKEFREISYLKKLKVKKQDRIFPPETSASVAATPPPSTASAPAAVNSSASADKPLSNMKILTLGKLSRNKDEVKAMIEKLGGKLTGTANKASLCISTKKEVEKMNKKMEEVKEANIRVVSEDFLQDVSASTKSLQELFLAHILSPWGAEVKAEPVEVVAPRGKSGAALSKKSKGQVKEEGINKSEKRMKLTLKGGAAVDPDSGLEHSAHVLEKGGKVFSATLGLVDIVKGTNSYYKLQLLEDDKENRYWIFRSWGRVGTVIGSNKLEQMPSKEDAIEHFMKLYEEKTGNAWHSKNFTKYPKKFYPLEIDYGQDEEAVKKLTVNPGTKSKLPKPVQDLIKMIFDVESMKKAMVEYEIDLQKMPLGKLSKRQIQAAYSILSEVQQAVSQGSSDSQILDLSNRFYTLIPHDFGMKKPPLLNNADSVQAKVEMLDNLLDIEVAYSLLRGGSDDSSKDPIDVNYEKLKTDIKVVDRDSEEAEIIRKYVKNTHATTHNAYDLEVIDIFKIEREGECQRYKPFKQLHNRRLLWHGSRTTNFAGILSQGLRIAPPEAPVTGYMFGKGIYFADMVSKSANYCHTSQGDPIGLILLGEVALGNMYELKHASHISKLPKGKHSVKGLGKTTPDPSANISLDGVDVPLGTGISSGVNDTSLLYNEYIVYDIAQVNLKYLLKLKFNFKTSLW

For orientation: pIC50 means the IC50 on a negative log10 scale, so that one unit is a factor of ten. On to `O=C(CCc1ccncc1)Nc1nnc2n1CCS2`, for which the pIC50 in data set [1] was 6.87; in data set [2] it was 4.90.

As to `O=C(NCc1ccccc1)Nc1nnc2n1CCS2`, the pIC50 in data set [1] is 6.35; in data set [2], 4.75.

Consider `CC(C)CC(=O)Nc1nnc2n1CCCS2`, for which the pIC50 in [1] is 6.01.

Turning to `CC(=O)Nc1nnc2n1CCS2`, the pIC50 in data set [1] was < 4.72.

`O=C(Nc1nnc2n1CCS2)C1CCC1`: the pIC50 in data set [1] is 6.58; in [2], 4.86.

Take `O=C(CCC1CCNCC1)Nc1nnc2n1CCS2`: the pIC50 in data set [1] was 5.63; in data set [2] it was < 4.30.

The compound `O=C(Nc1nnc2n1CCCS2)c1ccccc1` showed a pIC50 in data set [1] of 5.56.

As for `O=C(Nc1nnc2n1CCS2)c1ccccc1`, the pIC50 in data set [1] was 6.60.

As for `Oc1nc(-c2ccc(C(F)(F)F)cc2)nc2c1CSCC2`, the negative logarithm of the IC50 (pIC50) in data set [2] was 7.11.

Turning to `O=C(CCCC1CCCCC1)Nc1nnc2n1CCS2`, the pIC50 is 7.05 in data set [1] and 5.34 in data set [2].

Take `O=C(Nc1nnc2n1CCS2)C1CC1`: the pIC50 in data set [1] was 5.70; in [2] it was < 4.30.

Regarding `O=C(CC1CCOCC1)Nc1nnc2n1CCS2`, the results for the pIC50 in data set [1] and in data set [2] were 6.69 and 4.99, respectively.

`O=C(CCc1ccccc1)Nc1nnc2n1CCS2`: the results for the pIC50 in [1] and in [2] were 7.41 and 5.78, respectively.

For `O=C(Cc1ccccc1)Nc1nnc2n1CCS2`, the pIC50 in [1] was 6.62; in [2], 5.14.

In the case of `O=C(CCc1cccnc1)Nc1nnc2n1CCS2`, the pIC50 in data set [1] is 6.86; in [2], 5.20.

With `O=C(CCc1ccccc1F)Nc1nnc2n1CCS2`, the pIC50 in data set [1] was 7.92; in data set [2], 6.46.

Turning to `Cc1n[nH]c(C)c1CCC(=O)Nc1nnc2n1CCS2`, the values for the pIC50 in [1] and in data set [2] were 6.71 and < 5.00, respectively.

Turning to `Cc1cccc(C)c1CCC(=O)Nc1nnc2n1CCS2`, the figures for the pIC50 in data set [1] and in [2] were 7.48 and 5.92, respectively.

Usually solubility stands for how much of the substance goes into solution per volume. A lower solubility goes with little dissolved substance. In the case of `O=C(CCC1CCCC1)Nc1nnc2n1CCS2`, the hepatic extraction ratio is 0.68 in data set [3] and 0.91 in data set [4]. For the same compound, the pIC50 in [1] was 8.05; in data set [5], 5.51; in data set [2] it was 6.71; in [7] it was 7.55. This compound also returned a solubility in data set [6] of 630 µM (≈ 168 µg/mL).

Take `O=C(CCc1ccco1)Nc1nnc2n1CCS2`: the pIC50 in [1] is 7.06; in data set [2], 5.27.

For `O=C(CCc1ccc(Cl)cc1Cl)Nc1nnc2n1CCS2`, the hepatic extraction ratio in data set [4] came to 0.91. The pIC50 is 8.30 in data set [1]; < 4.72 in data set [8]; 5.33 in data set [9]; < 5.00 in data set [5]; 6.94 in [2]; 7.62 in data set [7].

Turning to `O=C(CCc1ccccc1Cl)Nc1nnc2n1CCS2`, the hepatic extraction ratio in data set [3] was 0.66; in data set [4], 0.9. Moreover, the pIC50 in data set [1] was 8.30; in data set [5], 5.85; in data set [2], 7.30; in data set [7], 7.85. This compound returned a solubility in data set [6] of 32 µM (≈ 9.88 µg/mL).

`O=C(CCC1CCCCC1)Nc1nnc2n1CCS2`: the hepatic extraction ratio in data set [3] turned out to be 0.2; in data set [4] it was 0.95. The pIC50 in data set [1] was 8.10; in data set [5], < 5.00; in data set [2] it was 6.77; in data set [7], 7.49. This compound gave a solubility in data set [6] of 520 µM (≈ 146 µg/mL).

With `CC(C)(C)c1ccc(C(=O)Nc2nnc3n2CCS3)cc1`, the hepatic extraction ratio in data set [3] was determined as 0.36; in [4], 0.84. For the same compound, the negative logarithm of the IC50 (pIC50) in data set [1] was 7.51; in data set [9], < 4.72; in [5] it was < 5.00; in [2], 5.62; in [7], 6.52. In data set [6], the solubility is > 100 µM.

Take `O=C(CC1CCCCC1)Nc1nnc2n1CCS2`: the pIC50 is 7.70 in [1] and 6.37 in data set [2].

With `CC(=O)Nc1nnc2n1CCCS2`, the pIC50 in data set [1] is < 4.72.

Turning to `O=C(Nc1nnc2n1CCS2)C1CCCCC1`, the negative-log IC50 (pIC50) in data set [1] is 7.15; in data set [2], 5.81.

As for `CC(C)(C)c1ccc(C(=O)Nc2nnc3n2CCCS3)cc1`, the results for the pIC50 in data set [1], in data set [9] and in data set [2] were 6.45, < 4.72 and 4.32, respectively.

Turning to `O=C(Nc1nnc2n1CCS2)C1CCCC1`, the values for the pIC50 in [1] and in [2] were 6.66 and 4.89, respectively.

As to `O=C(CCn1cncn1)Nc1nnc2n1CCS2`, the pIC50 in data set [1] is 5.75; in data set [2], < 5.00.

Take `O=C(CCC1CCCCCC1)Nc1nnc2n1CCS2`: the pIC50 in data set [1] was 7.59; in [2], 5.66.

Broadly, the Vd is a proportionality between amount in the body and measured concentration, not a real space. A low value points to confinement near the circulation. Usually clearance stands for the rate of elimination divided by the concentration. Read a high clearance as a high capacity for elimination. Regarding `O=C(CCc1c(Cl)cccc1Cl)Nc1nnc2n1CCS2`, the hepatic extraction ratio in data set [3] stood at 0.61; in [4] it was 0.91. This compound showed a Vd in data set [10] of 1.1 L/kg. The pIC50 in data set [1] was 8.52; in data set [8], < 4.72; in [9] it was < 4.72; in data set [5], 6.42; in data set [2], 7.54; in data set [7], 7.92. Further, the clearance in data set [11] was determined as 45.6 mL/min/kg. Also, in data set [6], the solubility was 16 µM (≈ 5.49 µg/mL).

Turning to `O=C(CCc1cccc(Cl)c1Cl)Nc1nnc2n1CCS2`, the hepatic extraction ratio in [4] worked out at 0.92. Moreover, the pIC50 in data set [1] was 9.00; in data set [8], < 4.72; in data set [9], 5.42; in data set [5] it was < 5.00; in [2], 7.70; in data set [7], 8.15.

For the compound `O=C(CCCc1ccccc1)Nc1nnc2n1CCS2`, the pIC50 in data set [1] was 6.52; in [2] it was 5.19.
